Data as given in patent US20220079948A1, “COMPOSITIONS AND METHODS FOR SUPPRESSING AND/OR TREATING HIV-INFECTION AND/OR A RELATED CLINICAL CONDITION THEREOF” (Indiana University Research And Technology Corporation, priority 2018, published 2022).

Tests used:
Type in all cases: cell-based, human
[1] = system: S1P1 surface expression in SupT1 wildtype (SupT1) cells; assay: S1P1 cell surface staining (fluorescence cytometry), mock transfected / control SupT1 cells; settings: PAK2 inhibition (5 μM FRAX597) in mock transfected cells
Method: (§1) S1P1 cell surface staining. For assessing Nef-dependent S1P1 regulations, stably transfected T cells (SupT) resulting in estrogen inducible Nef expression (Nef-ER) were used (see Lee J. H. et al. HIV Activates the Tyrosine Kinase Hck to Secrete ADAM Protease-Containing Extracellular Vesicles. EBIOMEDICINE 2018, 28:151-161). Upon treatment with tamoxifen (1 μM; established using CD4 downregulation) for 16 hours, fluorescence cytometry analysis was performed with an anti-S1P1 monoclonal antibody coupled to eFluor 660 (SW4GYPP, EBIOSCIENCE™).
(§2) HIV-Nef Leads to S1P1 Downregulation and Impaired Migration of T cells to S1P1 Gradients. The effect of Nef on regulation of S1P1 surface expression was examined using a recombinant human T cell line (SupT1), which stably expresses a tamoxifen inducible Nef (Nef-ER). Upon treatment with tamoxifen (1 μM) for 16 hours (as established for CD4 downregulation—see e.g., Walk S. F. et al., Design and use of an inducibly activated human immunodeficiency virus type 1 Nef to study immune modulation. J VIROL 2001; 75 (2):834-843), fluorescence cytometry analysis was performed with an anti-S1P1 monoclonal antibody coupled to eFluor 660 (SW4GYPP, EBIOSCIENCE™). […] To determine whether there was a specific pathway involved in HIV-Nef dependent S1P1, downregulation, PAK2 signaling was tested. […]

[2] = system: Nef-ER cells (SupT1) migration towards S1P gradient; assay: Migration assay through collagen I-coated transwell chambers towards S1P; settings: pretreatment with PAK2 inhibitor (5 μM); 4HT-activated Nef-ER cells; 100 nM S1P, 4 hours, 37° C.; FIG. 1B
Method: Migration assay. 4-Hydroxy tamoxifen (4HT) activated SupT1 control and Nef-ER cells were labeled with 2.5 uM Calcein-AM, washed using centrifugation and resuspended in phenol red free RPMI containing 0.1% fatty acid free BSA. These cells were loaded on the top chamber of collagen I-coated 4 micron transwell chambers as previously described (see, e.g., Iino J. et al. Platelet-derived sphingosine 1-phosphate induces migration of Jurkat T cells. LIPIDS HEALTH DIS 2014, 13:150). Briefly, cells were allowed to transmigrate,
This downregulation can lead to reduced chemotactic migration towards S1P as evidenced from experiments when 4 HT activated. SupT1I control and Nef-ER cells were tested for migration through collagen I-coated transwell chambers towards S1P gradients as previously described for Jurkat T cells (Iino J. et al. 2015).

[3] = system: S1P1 surface expression in SupT1 cells stably expressing tamoxifen-inducible HIV-1SF2-Nef-estrogen receptor construct (Nef-ER); assay: S1P1 cell surface staining (fluorescence cytometry), tamoxifen-activated Nef-ER cells; settings: 5 μM FRAX597, Nef activated with tamoxifen (1 μM) 16 hours, FIG. 1A/1D
Method: as §1, §2

`CCn1c(=O)c(-c2ccc(-c3cncs3)cc2Cl)cc2cnc(Nc3ccc(N4CCN(C)CC4)cc3)nc21` [FRAX597] was tested, and the S1P1 surface expression [1] was “downregulation of S1P1”, the S1P1 surface expression ([1]; listed as PAK2 inhibitor) was “downregulation of S1P” and the “Migration to bottom chamber containing S1P” value [2] was “not only restored the effect of NEF-ER but also showed significant increase in migration”. The S1P1 surface expression [3] was “not only restored S1P1 surface expression, but also increased S1P1 surface expression” and the S1P1 surface expression ([3]; listed as FRAX 597) was “restored S1P1 surface expression”.
